Experimental findings from patent US12350241B1, “Method for inhibiting proliferation of cancer cells” (IMAM MOHAMMAD IBN SAUD ISLAMIC UNIVERSITY, priority 2024, dated 2025) are described below.

Among the test systems are HEP2 cancer cells; PC3 cancer stem cells; FaDu cancer stem cells; HELA cancer stem cells.
What all share (experiment): growth inhibition of cancer cells (FIG. 3)
Holding throughout (assay type): cell-based

Test [1] concerns A549 lung cancer stem cells.
The subject of test [2] is HCT116 colon carcinoma stem cells.
The subject of test [3] is MDA-MB-468 cancer stem cells.

In the case of `CCCCOc1ccc(Oc2ccc(C=O)cc2)cc1` [YS2, 4-(4-butoxyphenoxy)benzaldehyde], the growth inhibition percentage entry with HEP2 cancer cells (HEP2 cancer cells) is listed as “about 70%”; in test [1] (A549 lung cancer stem cells) it was “about 90%”; in test [2] (HCT116 colon carcinoma stem cells), “about 90%”; in the test on PC3 cancer stem cells it was “about 90%”; in the test on FaDu cancer stem cells it was “about 90%”; in test [3] it was “about 95%”. The growth inhibition percentage result with HELA cancer stem cells is given as “about 80%”. Moreover, the “performance compared to doxorubicin (DOX)” value in the test with HEP2 cancer cells (HEP cell line, versus commercially available doxorubicin) is recorded as “comparable to or outperformed DOX”; in test [1] (A549 cell line, versus commercially available doxorubicin), “comparable to or outperformed DOX”; in test [2] (HCT 116 cell line, versus commercially available doxorubicin), “comparable to or outperformed DOX”.
